Here are results for one compound from article PMC5539197, “CD14 is critical for TLR2-mediated M1 macrophage activation triggered by N-glycan recognition” (Scientific Reports, 2017).

The assay deals with T1, ArtinM (Artocarpus integer, UniProt Q7M1T4).
T1 construct: tetramer
T1 sequence (Q7M1T4 1-149): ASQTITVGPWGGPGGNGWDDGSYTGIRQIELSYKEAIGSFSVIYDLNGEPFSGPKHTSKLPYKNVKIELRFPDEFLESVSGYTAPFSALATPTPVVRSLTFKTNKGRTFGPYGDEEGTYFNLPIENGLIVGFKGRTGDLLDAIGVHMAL
In words: inhibition of lectin precipitation, western blot. The following applies: 1 mM trimannoside pre-incubated, 4 °C; lysate of HEK cells transfected with CD14 or TLR2; carbohydrate recognition site, competes with glycoprotein N-glycans. The class given is binding. The method, then: inhibition of lectin precipitation, western blot on […] | CD14 and TLR2 were not detected when the procedure was carried out with […]
Background: In western blotting, separated proteins are transferred to a membrane and probed.

Turning to `OC[C@H]1O[C@H](OC[C@H]2OC(O)[C@@H](O)[C@@H](O[C@H]3O[C@H](CO)[C@@H](O)[C@H](O)[C@@H]3O)[C@@H]2O)[C@@H](O)[C@@H](O)[C@@H]1O` (stereo partly shown) [Manα1-3(Manα1-6)Man], the “inhibition of lectin precipitation, western blot” value is “CD14 and TLR2 were not detected when the procedure was carried out with ArtinM”.
